Consider 23 compounds from patent US10752588B2 (The Broad Institute, Inc., priority 2014, dated 2020).

pEC50, pIC50: −log10 of the molar value. Where only a bound is given, the exact number is not on record here.

Test [1] deals with T1, human D2R/β-arrestin (Homo sapiens (Human), UniProt P14416). Kind of test: β-Arrestin agonist assay (PathHunter). The class given is cell-based. The following applies: CHO-K1 cell line expressing human D2R/β-arrestin. On the procedure: (§1) The assays can be performed using proper detection reagents either prepared using routine methods known in the art or commercially available (e.g., PathHunter® β-Arrestin Detecting Kit (DiscoveRX)). Cells are grown to the necessary confluence and then detached. The cells are then centrifuged, washed, resuspended, and seeded into a container (e.g., 384-well plate). The cells are incubated (e.g., at 37° C., 5% CO2) for the appropriate period of time (e.g., 24 hours), before various compounds (e.g., a compound of the invention or a control compound) are added to the cells. After incubation of the cells with the compounds, detection reagents (e.g., a buffer containing Emerald II: Galactor-Star as provided DiscoveRX) are added to the cells. The read-out (e.g., luminescence, or fluorescence) is detected using standard equipment.
The detection reagent (9.6 μL, Buffer:Emerald II:Galactor-Star in a 19:5:1 ratio, i.e., 14.06 mL:3.7 mL:0.74 mL=18.5 mL) was then added to the agonist plates.

Test [2] has as its target T1, human D2R/β-arrestin. Put plainly: Gi/cAMP agonist assay (Lance Ultra cAMP, Forskolin). The class given is cell-based. The following applies: CHO-K1 cell line expressing human D2R/β-arrestin. On the procedure: as §1, with “PE Lance Ultra cAMP kit (TRF0263)).” for “PathHunter® β-Arrestin Detecting Kit (DiscoveRX)).”, “Afterwards, cAMP inducing agents (e.g., Forskolin) are added to and incubated with” for “After incubation of”, “before” for “with the compounds,”, “cAMP antibody, such” for “buffer containing Emerald II: Galactor-Star”, “ULight-anti-cAMP solution)” for “provided DiscoveRX)”, “Read-out” for “The read-out”
Compounds were pin-transferred (100 nL) to the cells, and incubated for 10 min. at 37° C. […] Eu-cAMP tracer solution (100, PerkinElmer, […] in 17.64 ml kit buffer) and ULight-anti-cAMP solution (100, 120 μL antibody in 17.88 ml kit buffer) was then added to each well.

The target in test [3] is T1, human D2R/β-arrestin. Put plainly: cell-based. The following applies: β-arrestin Antagonist, CHO-K1 cell line expressing human D2R/β-arrestin; quinpirole used as agonist.
For test [4], the target named is T1, human D2R/β-arrestin. Put plainly: cell-based. The conditions noted are these: cAMP Antagonist, CHO-K1 cell line expressing human D2R/β-arrestin; quinpirole used as agonist.

T1 sequence (P14416 whole entry): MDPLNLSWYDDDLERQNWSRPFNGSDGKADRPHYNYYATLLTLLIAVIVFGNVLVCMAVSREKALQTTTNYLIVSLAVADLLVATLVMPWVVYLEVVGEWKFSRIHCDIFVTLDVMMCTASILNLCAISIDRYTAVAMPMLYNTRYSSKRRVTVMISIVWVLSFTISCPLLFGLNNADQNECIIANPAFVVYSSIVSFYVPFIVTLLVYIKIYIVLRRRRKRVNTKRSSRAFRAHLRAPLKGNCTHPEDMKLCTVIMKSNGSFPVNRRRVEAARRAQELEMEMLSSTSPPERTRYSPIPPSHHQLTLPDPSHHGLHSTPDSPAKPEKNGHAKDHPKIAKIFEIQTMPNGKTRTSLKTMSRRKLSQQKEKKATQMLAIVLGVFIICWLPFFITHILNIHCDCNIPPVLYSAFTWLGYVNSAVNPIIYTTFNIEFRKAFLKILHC

For orientation: pEC50 means −log10 of the EC50, conventionally taken in molar units. Low readings indicate a large EC50, high ones a small EC50. One may read the pIC50 as the IC50 on a negative log10 scale, so that one unit is a factor of ten. Low values mean a large IC50, high ones a small IC50. For the compound `COc1cccc(C(NC(=O)C2CCN(CCOc3ccc(F)cc3F)CC2)c2ccccn2)c1` (single isomer, unassigned) [Compound 145b, 1-(2-(2,4-difluorophenoxy)ethyl)-N-((3-methoxyphenyl)(pyridin-2-yl)methyl)piperidine-4-carboxamide], the pEC50 at human D2R/β-arrestin [1] and on human D2R/β-arrestin [2] was less than 4.52 each time. The pIC50 on human D2R/β-arrestin [3] was 5.00 to 6.00; on human D2R/β-arrestin [4], 6.00 to 7.00.

As to `O=C(NC(c1ccc(Cl)cc1)c1ccccn1)C1CCN(CCOc2cccc(Cl)c2)CC1` (centres unmarked) [Compound 1, 1-(2-(3-chlorophenoxy)ethyl)-N-((4-chlorophenyl)(pyridin-2-yl)methyl)piperidine-4-carboxamide], the pEC50 on human D2R/β-arrestin [1] was less than 4.52; on human D2R/β-arrestin [2] it was more than 7.00. For the same compound, the negative logarithm of the IC50 (pIC50) was 6.00 to 7.00 on human D2R/β-arrestin [3] and less than 4.52 on human D2R/β-arrestin [4].

For the compound `O=C(NC(c1ccc(Cl)cc1)c1ccccn1)C1CCN(CCOc2ccc(Cl)cc2)CC1` (centres unmarked) [Compound 2, 1-(2-(4-chlorophenoxy)ethyl)-N-((4-chlorophenyl)(pyridine-2-yl)methyl) piperidine-4-carboxamide], the results for the pEC50 at human D2R/β-arrestin [1] and at human D2R/β-arrestin [2] were less than 4.52 and 6.00 to 7.00, respectively. In addition, the values for the pIC50 on human D2R/β-arrestin [3] and on human D2R/β-arrestin [4] were 5.00 to 6.00 and less than 4.52, respectively.

With `O=C(NC(c1ccc(Cl)cc1)c1ccccn1)C1CCN(CCOc2cccc(F)c2)CC1` (centres unmarked) [Compound 4], the negative-log EC50 (pEC50) on human D2R/β-arrestin [1] was less than 4.52; at human D2R/β-arrestin [2], more than 7.00. For the same compound, the pIC50 was 6.00 to 7.00 at human D2R/β-arrestin [3] and less than 4.52 at human D2R/β-arrestin [4].

In the case of `O=C(NC(c1ccc(Cl)cc1)c1ccccn1)C1CCN(CCn2ccccc2=O)CC1` (centres unmarked) [Compound 9, N((4-chlorophenyl)(pyridin-2-yl)methyl)-1-(2-(2-oxopyridin-1(2H)-yl)ethyl) piperidine-4-carboxamide], the pEC50 on human D2R/β-arrestin [1] and on human D2R/β-arrestin [2] was less than 4.52 each time. The pIC50 at human D2R/β-arrestin [3] and on human D2R/β-arrestin [4] was 5.00 to 6.00 throughout.

Regarding `COc1cccc(OCCN2CCC(C(=O)NC(c3ccc(Cl)cc3)c3ccccn3)CC2)c1` (centres unmarked) [Compound 12, N-((4-chlorophenyl) (pyridin-2-yl)methyl)-1-(2-(3-methoxyphenoxy)ethyl) piperidine-4-carboxamide], the pEC50 on human D2R/β-arrestin [1] is less than 4.52; at human D2R/β-arrestin [2] it was 4.52 to 5.00. Besides, the pIC50 at human D2R/β-arrestin [3] was 5.00 to 6.00; at human D2R/β-arrestin [4], 6.00 to 7.00.

Turning to `COc1ccc(OCCN2CCC(C(=O)NC(c3ccc(Cl)cc3)c3ccccn3)CC2)cc1` (centres unmarked) [Compound 13, N-((4-chlorophenyl)(pyridin-2-yl)methyl)-1-(2-(4-methoxyphenoxy)ethyl) piperidine-4-carboxamide], the pEC50 on human D2R/β-arrestin [1] is less than 4.52; at human D2R/β-arrestin [2], 5.00 to 6.00. Besides, the pIC50 on human D2R/β-arrestin [3] was 5.00 to 6.00; at human D2R/β-arrestin [4], less than 4.52.

Consider `O=C(NC(c1ccc(Cl)cc1)c1ccccn1)C1CCN(CCOC2CCCCC2)CC1` (centres unmarked) [Compound 17, N-((4-chlorophenyl) (pyridin-2-yl)methyl)-1-(2-(cyclohexyloxy)ethyl) piperidine-4-carboxamide], for which the pEC50 on human D2R/β-arrestin [1] and at human D2R/β-arrestin [2] was less than 4.52 in each case. Besides, the pIC50 at human D2R/β-arrestin [3] was 5.00 to 6.00; on human D2R/β-arrestin [4], 6.00 to 7.00.

Consider `O=C(NC(c1ccc(Cl)cc1)c1ccccn1)C1CCN(CCOc2ccc3ncsc3c2)CC1` (centres unmarked) [Compound 19, 1-(2-(Benzo[d]thiazol-6-yloxy)ethyl)-N-((4-chlorophenyl)(pyridin-2-yl)methyl) piperidine-4-carboxamide], for which the results for the pEC50 on human D2R/β-arrestin [1] and at human D2R/β-arrestin [2] were less than 4.52 and 6.00 to 7.00, respectively. Moreover, the pIC50 is 5.00 to 6.00 on human D2R/β-arrestin [3] and less than 4.52 at human D2R/β-arrestin [4].

As to `COc1cccc(C(NC(=O)C2CCN(CCOc3ccccc3C(F)(F)F)CC2)c2ccccn2)c1` (centres unmarked) [Compound 20, N-((3-methoxyphenyl)(pyridin-2-yl)methyl)-1-(2-(2-(trifluoromethyl)phenoxy)ethyl) piperidine-4-carboxamide], the pEC50 at human D2R/β-arrestin [1] and at human D2R/β-arrestin [2] was less than 4.52 throughout. Moreover, the pIC50 on human D2R/β-arrestin [3] is 6.00 to 7.00; at human D2R/β-arrestin [4] it was more than 7.00.

Consider `COc1cccc(C(NC(=O)C2CCN(CCOc3ccccc3Cl)CC2)c2ccccn2)c1` (centres unmarked) [Compound 21, 1-(2-(2-chlorophenoxy)ethyl)-N-((3-methoxyphenyl)(pyridin-2-yl)methyl) piperidine-4-carboxamide], for which the pEC50 on human D2R/β-arrestin [1] and at human D2R/β-arrestin [2] was less than 4.52 throughout. Further, the pIC50 at human D2R/β-arrestin [3] and at human D2R/β-arrestin [4] was 6.00 to 7.00 in each case.

Take `COc1cccc(C(NC(=O)C2CCN(CCOc3ccccc3F)CC2)c2ccccn2)c1` (centres unmarked) [Compound 22, 1-(2-(2-fluorophenoxy)ethyl)-N-((3-methoxyphenyl)(pyridin-2-yl)methyl) piperidine-4-carboxamide]: the pEC50 on human D2R/β-arrestin [1] and on human D2R/β-arrestin [2] was less than 4.52 in each case. Besides, the pIC50 on human D2R/β-arrestin [3] and on human D2R/β-arrestin [4] was 6.00 to 7.00 throughout.

Consider `O=C(NC(c1ccccn1)c1ccccc1Cl)C1CCN(CCOc2ccccc2)CC1` (centres unmarked) [Compound 24], for which the pEC50 at human D2R/β-arrestin [1] is less than 4.52; on human D2R/β-arrestin [2], 5.00 to 6.00. The values for the pIC50 on human D2R/β-arrestin [3] and on human D2R/β-arrestin [4] were 5.00 to 6.00 and less than 4.52, respectively.

Turning to `O=C(NC(c1cccnc1)c1ccccn1)C1CCN(CCOc2ccccc2)CC1` (centres unmarked) [Compound 29, 1-(2-phenoxyethyl)-N-(pyridin-2-yl(pyridin-3-yl)methyl)piperidine-4-carboxamide], the pEC50 at human D2R/β-arrestin [1] is less than 4.52; at human D2R/β-arrestin [2] it was 6.00 to 7.00. In addition, the pIC50 is 5.00 to 6.00 on human D2R/β-arrestin [3] and less than 4.52 at human D2R/β-arrestin [4].

As for `O=C(NC(c1ccccn1)c1ccccn1)C1CCN(CCOc2ccccc2)CC1` [Compound 30, N-(di(pyridin-2-yl)methyl)-1-(2-phenoxyethyl)piperidine-4-carboxamide], the pEC50 on human D2R/β-arrestin [1] was less than 4.52; at human D2R/β-arrestin [2] it was 5.00 to 6.00. The pIC50 on human D2R/β-arrestin [3] was 4.52 to 5.00; on human D2R/β-arrestin [4] it was less than 4.52.

As for `O=C(NC(c1ccccn1)c1ccccc1C(F)(F)F)C1CCN(CCOc2ccccc2)CC1` (centres unmarked) [Compound 33, 1-(2-phenoxyethyl)-N-(pyridin-2-yl(2-(trifluoromethyl)phenyl)methyl) piperidine-4-carboxamide], the figures for the negative-log EC50 (pEC50) at human D2R/β-arrestin [1] and on human D2R/β-arrestin [2] were less than 4.52 and 5.00 to 6.00, respectively. The pIC50 at human D2R/β-arrestin [3] was 4.52 to 5.00; at human D2R/β-arrestin [4] it was less than 4.52.

Regarding `COc1ccc(C(NC(=O)C2CCN(CCOc3ccccc3)CC2)c2ccccn2)cc1` (centres unmarked) [Compound 34], the negative-log EC50 (pEC50) at human D2R/β-arrestin [1] is less than 4.52; at human D2R/β-arrestin [2], 6.00 to 7.00. In addition, the values for the negative logarithm of the IC50 (pIC50) at human D2R/β-arrestin [3] and on human D2R/β-arrestin [4] were 5.00 to 6.00 and less than 4.52, respectively.

Take `COc1ccccc1C(NC(=O)C1CCN(CCOc2ccccc2)CC1)c1ccccn1` (centres unmarked) [Compound 36, N((2-methoxyphenyl)(pyridin-2-yl)methyl)-1-(2-phenoxyethyl) piperidine-4-carboxamide]: the pEC50 at human D2R/β-arrestin [1] and at human D2R/β-arrestin [2] was less than 4.52 each time. In addition, the pIC50 was 4.52 to 5.00 at human D2R/β-arrestin [3] and less than 4.52 on human D2R/β-arrestin [4].

Turning to `CC(C)C(NC(=O)C1CCN(CCOc2ccccc2)CC1)c1ccccn1` (centres unmarked) [Compound 38, N-(2-methyl-1-(pyridin-2-yl)propyl)-1-(2-phenoxyethyl)piperidine-4-carboxamide], the pEC50 on human D2R/β-arrestin [1] was less than 4.52; on human D2R/β-arrestin [2] it was 5.00 to 6.00. Further, the values for the pIC50 on human D2R/β-arrestin [3] and at human D2R/β-arrestin [4] were 5.00 to 6.00 and less than 4.52, respectively.

Regarding `COc1ccccc1C(NC(=O)C1CCN(CCOc2ccccc2)CC1)c1ccc(Cl)cc1` (centres unmarked) [Compound 43], the pEC50 at human D2R/β-arrestin [1] was less than 4.52; on human D2R/β-arrestin [2], 5.00 to 6.00. For the same compound, the pIC50 is 5.00 to 6.00 at human D2R/β-arrestin [3] and less than 4.52 at human D2R/β-arrestin [4].

`COc1ccc(C(NC(=O)C2CCN(CCOc3ccccc3)CC2)c2ccc(Cl)cc2)cc1` (centres unmarked) [Compound 44]: the pEC50 on human D2R/β-arrestin [1] and on human D2R/β-arrestin [2] was less than 4.52 throughout. Besides, the values for the pIC50 at human D2R/β-arrestin [3] and on human D2R/β-arrestin [4] were 5.00 to 6.00 and 4.52 to 5.00, respectively.

Regarding `O=C(NC(c1ccc(F)cc1)c1ccc(F)cc1)C1CCN(CCOc2ccccc2)CC1` [Compound 47, N-(bis(4-fluorophenyl)methyl)-1-(2-phenoxyethyl)piperidine-4-carboxamide], the negative logarithm of the EC50 (pEC50) at human D2R/β-arrestin [1] and on human D2R/β-arrestin [2] was less than 4.52 in each case. Further, the pIC50 on human D2R/β-arrestin [3] is 5.00 to 6.00; on human D2R/β-arrestin [4] it was 6.00 to 7.00.

Consider `O=C(NC(c1ccccc1F)c1ccccc1F)C1CCN(CCOc2ccccc2)CC1` [Compound 48, N-(bis(2-fluorophenyl)methyl)-1-(2-phenoxyethyl)piperidine-4-carboxamide], for which the pEC50 at human D2R/β-arrestin [1] is less than 4.52; at human D2R/β-arrestin [2] it was 5.00 to 6.00. Moreover, the pIC50 on human D2R/β-arrestin [3] was 5.00 to 6.00; on human D2R/β-arrestin [4], less than 4.52.
